# Source: patent US20150231236A1, “METHODS FOR TREATING PATIENTS WITH HYPERCHOLESTEROLEMIA THAT IS NOT ADEQUATELY CONTROLLED BY MODERATE-DOSE STATIN THERAPY” (Regeneron Pharmaceuticals, Inc., priority 2014, published 2015)
# How the values were obtained:
# [1] = as reported elsewhere; cited from earlier work
# [2] = test system: patients with hypercholesterolemia at high CV risk not adequately controlled with rosuvastatin (10 mg or 20 mg); assay: Example 3: randomized, double-blind trial, lipid efficacy of mAb316P add-on to rosuvastatin vs EZE add-on or rosuvastatin dose doubling; format: in vivo, human; details: for Proportion of Patients Reaching LDL-C goal (%) / LDL-C W24 % change from baseline, LS mean (SE): week 24; for Proportion of Patients Reaching LDL-C goal (%): LDL-C <70 mg/dL very high risk or <100 mg/dL high risk; for LDL-C W24 % change from baseline, LS mean (SE): ITT population, treatment arm as labelled
# Method: The present study was a randomized, double-blind, active-comparator, parallel-group study in patients at high CV risk with non-FH or heFH who are not adequately controlled with rosuvastatin (10 mg or 20 mg) with or without other lipid-modifying therapy (LMT) (excluding EZE). The study design is illustrated in FIG. 2. Patients who entered the study were taking either rosuvastatin 10 mg or rosuvastatin 20 mg. The former patients were randomized to 1 of 3 treatment arms (arms 1 to 3); the latter patients were randomized to 1 of 3 treatment arms (arms 4 to 6). The treatment arms are as follows:
# (B) a double-blind treatment period of 24 weeks. […] The patient/caregiver administered subsequent injections outside of the clinic according to the dosing schedule. […] The last dose of daily oral study drugs was administered at week 24.
# The first injection of study drug was administered at the clinical site, as soon as possible after the patient was randomized into the study. The patient was monitored at the clinical site for at least 30 minutes following the first injection. The patient/caregiver administered subsequent injections outside of the clinic, according to the dosing schedule.
# The primary efficacy endpoint was the percent change in calculated LDL-C from baseline to week 24, which is defined as: 100× (calculated LDL-C value at week 24−calculated LDL-C value at baseline)/calculated LDL-C value at baseline. The baseline calculated LDL-C value was the last LDL-C level obtained before the first double-blind study drug injection. The calculated LDL-C at week 24 was the LDL-C level obtained within the week 24 analysis window and during the main efficacy period. The main efficacy period is defined as the time from the first double-blind study drug injection up to 21 days after the last double-blind study drug injection or up to the upper limit of the week 24 analysis window, whichever comes first.
# Total-C, HDL-C, TG, ApoB, ApoA-1, and Lp(a) were directly measured by a central laboratory. LDL-C was calculated using the Friedewald formula. […] Non-HDL-C was calculated by subtracting HDL-C from the total-C. Ratio ApoB/ApoA-1 was calculated.
# For clarification, the ITT analysis is defined for patients in the ITT population and includes all endpoint assessments in an analysis window, regardless of study treatment dosing status (i.e. includes post-treatment assessments). The on-treatment analysis is defined for patients in the mITT population and includes all endpoint assessments from the first double-blind study drug (capsule or injection, whichever comes first) up to 21 days after the last double-blind study drug injection or 3 days after the last capsule intake, whichever comes first (i.e. includes assessments in the efficacy treatment period).
# [3] = Week 4, baseline rosuvastatin 10 mg
# [4] = Week 4, baseline rosuvastatin 20 mg
# [5] = Week 8, baseline rosuvastatin 10 mg
# [6] = Week 8, baseline rosuvastatin 20 mg
# [7] = Week 12, baseline rosuvastatin 10 mg
# [8] = Week 12, baseline rosuvastatin 20 mg
# [9] = Week 16, baseline rosuvastatin 10 mg
# [10] = Week 16, baseline rosuvastatin 20 mg
# [11] = Week 24, baseline rosuvastatin 10 mg
# [12] = Week 24, baseline rosuvastatin 20 mg
compound,measurement,setting,value
"CC(C)c1nc(N(C)S(C)(=O)=O)nc(-c2ccc(F)cc2)c1/C=C/[C@@H](O)C[C@@H](O)CC(=O)O [rosuvastatin, reference compound]",reduction in LDL-C levels when switching from atorvastatin 40 mg per day to rosuvastatin 40 mg per day,[1],~8%
same,Proportion of Patients Reaching LDL-C goal (%),[2]; Baseline Rosuvastatin 10 mg,45.0%
same,Proportion of Patients Reaching LDL-C goal (%),[2]; Baseline Rosuvastatin 20 mg,40.1%
same,Calculated LDL-C LS mean (SE) Value,"[2]; Baseline, baseline rosuvastatin 10 mg",105.9 (5.2) mg/dL
same,Calculated LDL-C LS mean (SE) Value,"[2]; Baseline, baseline rosuvastatin 20 mg",113.7 (6.0) mg/dL
same,"LDL-C W24 % change from baseline, LS mean (SE)",[2]; listed as RSV 20,−16.3%
same,"LDL-C W24 % change from baseline, LS mean (SE)",[2]; listed as RSV 40,−15.9%
same,Calculated LDL-C LS mean (SE) Value,[2]; [3],89.1 (3.6) mg/dL
same,"Calculated LDL-C LS mean (SE), % Change from Baseline",[2]; [3],−13.1 (3.2) %
same,"Calculated LDL-C LS mean (SE), Change from Baseline",[2]; [3],−16.2 (3.6)
same,Calculated LDL-C LS mean (SE) Value,[2]; [4],92.0 (3.4) mg/dL
same,"Calculated LDL-C LS mean (SE), % Change from Baseline",[2]; [4],−20.0 (5.3) %
same,"Calculated LDL-C LS mean (SE), Change from Baseline",[2]; [4],−25.1 (3.4)
same,Calculated LDL-C LS mean (SE) Value,[2]; [5],85.4 (4.3) mg/dL
same,"Calculated LDL-C LS mean (SE), % Change from Baseline",[2]; [5],−17.0 (3.8) %
same,"Calculated LDL-C LS mean (SE), Change from Baseline",[2]; [5],−19.9 (4.3)
same,Calculated LDL-C LS mean (SE) Value,[2]; [6],91.9 (4.3) mg/dL
same,"Calculated LDL-C LS mean (SE), % Change from Baseline",[2]; [6],−21.2 (5.7) %
same,"Calculated LDL-C LS mean (SE), Change from Baseline",[2]; [6],−25.2 (4.3)
same,Calculated LDL-C LS mean (SE) Value,[2]; [7],85.7 (4.1) mg/dL
same,"Calculated LDL-C LS mean (SE), % Change from Baseline",[2]; [7],−17.1 (4.1) %
same,"Calculated LDL-C LS mean (SE), Change from Baseline",[2]; [7],−19.6 (4.1)
same,Calculated LDL-C LS mean (SE) Value,[2]; [8],90.4 (4.3) mg/dL
same,"Calculated LDL-C LS mean (SE), % Change from Baseline",[2]; [8],−22.1 (5.3) %
same,"Calculated LDL-C LS mean (SE), Change from Baseline",[2]; [8],−26.6 (4.3)
same,Calculated LDL-C LS mean (SE) Value,[2]; [9],83.6 (4.7) mg/dL
same,"Calculated LDL-C LS mean (SE), % Change from Baseline",[2]; [9],−19.3 (4.8) %
same,"Calculated LDL-C LS mean (SE), Change from Baseline",[2]; [9],−21.6 (4.7)
same,Calculated LDL-C LS mean (SE) Value,[2]; [10],93.8 (4.8) mg/dL
same,"Calculated LDL-C LS mean (SE), % Change from Baseline",[2]; [10],−18.5 (6.3) %
same,"Calculated LDL-C LS mean (SE), Change from Baseline",[2]; [10],−23.3 (4.8)
same,Calculated LDL-C LS mean (SE) Value,[2]; [11],85.4 (4.3) mg/dL
same,"Calculated LDL-C LS mean (SE), % Change from Baseline",[2]; [11],−16.3 (4.1) %
same,"Calculated LDL-C LS mean (SE), Change from Baseline",[2]; [11],−19.9 (4.3)
same,Calculated LDL-C LS mean (SE) Value,[2]; [12],95.5 (5.7) mg/dL
same,"Calculated LDL-C LS mean (SE), % Change from Baseline",[2]; [12],−15.9 (7.1) %
same,"Calculated LDL-C LS mean (SE), Change from Baseline",[2]; [12],−21.5 (5.7)
same,proportion of patients who reached LDL-C level of <70 mg/dL (1.81 mmol/L) at Week 24,[2]; baseline rosuvastatin 10 mg regimen,31.3%
same,proportion of patients who reached LDL-C level of <70 mg/dL (1.81 mmol/L) at Week 24,[2]; baseline rosuvastatin 20 mg regimen,29.9%
